Experimental data from a melting point compilation (Tetko et al.; mined from patent text by program, amines drawn as free bases though some values may be those of a salt).

Point of comparison: `COc1cc(-n2nc(C(F)(F)F)cc2-c2ccc(-c3ccco3)cc2)ccc1S(N)(=O)=O`, melting point 207 °C. Against it:
- Cc1cc(Br)ccc1NC(=O)c1cccc(S(=O)(=O)N2CCCCCC2)c1 — lower, 177 to 179 °C
- CCCC(C(=O)OCC)N1CC(COc2cccc(Cl)c2)OC1=O (stereo unspecified) — lower, 43 to 49 °C
- FS(F)(F)(F)(F)c1ccc(/C=C/c2nc(COc3ccc(-c4nc(Cn5ccnn5)co4)cc3)co2)cc1 — lower, 172 to 174 °C
- CCOC(=O)C(C)c1ccc2c(c1)sc1nc(=O)cc(-c3ccccc3)n12 (stereo unspecified) — lower, 127 to 131 °C
- Cc1cc2c(cc1C)C(C(F)(F)F)(C(F)(F)C(F)(F)F)c1cc(C)c(C)cc1O2 — lower, 139 to 140 °C
- CC(C)OC(=O)Nc1ccc(Cl)c(-c2ccnc3c(C(=O)c4cccs4)cnn23)c1 — higher, 234 to 236 °C
- CC(=O)C=Cc1ccc(C#N)cc1 — lower, 103 to 106 °C
- O=C1CCSc2ncccc21 — lower, 66 to 68 °C
- Nn1c(=O)c(=O)[nH]c2c(Br)cc(F)cc21 — higher, 293 to 295 °C
- CCOC(=O)c1c(Nc2ccc(F)cc2[N+](=O)[O-])nn(C)c1C — lower, 174 °C
- CC/C(=C\C=C\C(=O)O)c1ccc(OC)cc1 — lower, 136 to 137 °C
- Cc1cc(C)c2c(c1)CC2=NNC(N)=S — higher, 230 to 232 °C
- CSc1nnc(C(C)(C)C)c(=O)n1C — lower, 90 to 100 °C
- COc1ccc(N(CCCC(O)CO)S(=O)(=O)c2c(F)c(F)c(F)c(F)c2F)cc1 (stereo unspecified) — lower, 116 to 118 °C
- CCOC(=O)CCC(NC(=O)c1ccc(NC2CCc3cc4nc(C)n(COC(=O)C(C)(C)C)c(=O)c4cc32)cc1)C(=O)OCC (mixture of isomers) — lower, 156 °C
- NS(=O)(=O)c1cc(C(=O)O)cc(NCc2ccccc2)c1S(=O)c1ccccc1 (stereo unspecified) — higher, 234 °C
- Cc1ccc(F)cc1C(=O)Nc1ccc(C(=O)N2Cc3ccccc3Nc3ncccc32)cn1 — lower, 102 to 104 °C
- CC(NC(=O)CCBr)c1ccccc1 (stereo unspecified) — lower, 69 to 70 °C
- CCCCc1nc2cccc(C(=O)OC)c2n1Cc1ccc(-c2ncncc2C#N)cc1 — lower, 131 to 133 °C
- O=C(Nc1cccnn1)N1CCN(c2nccc(-c3cccc(F)c3F)n2)CC1 — higher, 248 to 249 °C
- CCC(CC)Oc1nc(C)nc(Cc2c(C)cc(C)cc2C)c1C — lower, 82 to 84 °C
- Cn1cc(C(=O)c2ccc(F)cc2)cc1C(=O)c1ccncc1 — lower, 155 to 157 °C
- O=c1cc2c(nn1Cc1ccc(Cl)cc1)-c1ccccc1S(=O)(=O)CC2 — higher, 238 to 239 °C
- O=C(NCc1ccc(Cl)cc1)c1cnc2cc(C(F)(F)F)ccc2c1O — lower, 189 to 190 °C
- CC(C)c1ccc(S(=O)(=O)n2c(Cc3ccc(C(=O)O)c(F)c3)cc3cc(C(F)(F)F)ccc32)cc1 — lower, 197 °C
- CC(C)Oc1ccc2c(c1)Oc1cccc(F)c1S2(=O)=O — lower, 151 to 152 °C
- COc1cccc(Nc2cc(=S)ss2)c1 — lower, 131 to 134 °C
- Cc1cc(C)c2cc(N)c(=O)[nH]c2n1 — higher, 238 to 240 °C
- Oc1ccc(-c2nc(-c3cccs3)c[nH]2)cc1Cl — lower, 152 to 153 °C
- O=C1C=CC(O)(c2nc3ccccc3o2)C=C1 — lower, 116 to 117 °C
- c1ccc2cc(CC[C@H]3CNCCN3)ccc2c1 — lower, 151 to 154 °C
- O=C(O)COc1ccc(C=CC(=O)c2ccc(C(=O)O)cc2)cc1 — higher, 312 to 314 °C
- CC(C(=O)O)=C1CCC2C3CCC4=CC(=O)CCC4(C)C3CCC12C (stereo unspecified) — higher, 266 to 270 °C
- CCCOc1ccc2c(c1)C(=O)C[C@H]2c1ccc2c(c1)OCO2 — lower, 63 to 65 °C
- CCOC(=O)c1cnc2ccc(Cl)cc2c1-c1ccccc1 — lower, 123 to 124 °C
- COC(=O)Cc1cc2ccc(OC)cc2n(Cc2ccccc2)c1=O — lower, 118 to 120 °C
- COc1cccc2c(C#Cc3ccccc3)c3cccc(OC)c3c(C#Cc3ccccc3)c12 — lower, 178 to 180 °C
- CCOC(=O)c1cnn2c1c(NC1CC1)nc1ccccc12 — lower, 167 to 169 °C
- COCCC1(C(=O)N[C@@H](Cc2ccc(N3C(=O)c4ccc(C#N)cc4C3=O)cc2)C(=O)O)CCCC1 — lower, 143 to 146 °C
- CN(C)C1CCN(c2nc(N3CCOCC3)c3ncnc(N(CC(=O)O)Cc4ccccc4)c3n2)CC1 — lower, 151 to 155 °C
- COc1ccc(C(=O)c2ccc(O)cc2)c(OC(C)(C)C(=O)OC(C)(C)C)c1 — lower, 172 to 173 °C
- O=C(Nc1cccc2cc(COc3ccccc3)cnc12)c1c(Cl)cccc1Cl — lower, 157 °C
- N#Cc1ccc(C=NO)c(Cl)c1 — lower, 177 to 179 °C
- Cc1ccc2cccc(OCc3c(Cl)ccc(N(C)C(=O)CNC(=O)/C=C/c4ccc(NC(=O)c5cnccn5)nc4)c3Cl)c2n1 — higher, 220 to 231 °C
- CC(C)c1cc(Oc2ccccc2)cc(C2CCCCC2)c1N — lower, 108 to 110 °C
- CC(C)C(=O)NCc1cccc2c1C(=O)N(C1CCC(=O)NC1=O)C2=O (stereo unspecified) — higher, 218 to 220 °C
- CCCC(C)(Oc1ccccc1C)C(=O)OC1CC(O)C=C2C=CC(C)C(CCC3CC(O)CC(=O)O3)C21 (mixture of isomers) — lower, 161 to 163 °C
- CN(C)S(=O)(=O)c1ccc(N)cc1C(F)(F)F — lower, 140 to 142 °C
- CCCCCNc1nc(C)c(C(=O)c2ccc(N)c([N+](=O)[O-])c2)s1 — lower, 165 to 169 °C
- O=S(=O)(CCl)c1ccc(O)c(Br)c1 — lower, 158 to 160 °C
